In ChEMBL document CHEMBL5126582, “Discovery of (2-(pyrrolidin-1-yl)thieno[3,2-d]pyrimidin-4-yl)(3,4,5-trimethoxyphenyl)methanone as a novel potent tubulin depolymerizing and vascular disrupting agent” (Eur J Med Chem, 2022):

Tests used:
A549 = experiment: cells; conditions: Homo sapiens, A549, 48 h
Description: Antiproliferative activity against human A549 cells assessed as reduction in cell viability incubated for 48 hrs by MTS assay

HeLa [1] = experiment: Induction of apoptosis in human HeLa cells assessed as viable cells at 100 nM incubated for 24 hrs by annexin V FITC and propidium iodide staining based flow cytometry analysis (reference value: 85.7%); type: functional; conditions: read-out: Activity
HeLa [2] = experiment: Induction of apoptosis in human HeLa cells assessed as late apoptotic cells at 100 nM incubated for 48 hrs by annexin V FITC and propidium iodide staining based flow cytometry analysis (reference value: 8.87%); type: functional
[3] = Metabolic stability in rat liver microsomes assessed as half life incubated for 5 mins in presence of NADPH by HPLC analysis; type: ADME, Microsome
Tubulin (Homo sapiens) = Tubulin (Homo sapiens) (UniProt P68371+Q9H4B7+P0DPH7+P68366+Q13509+Q71U36+P04350+Q3ZCM7+P07437+P68363+Q9BQE3+Q6PEY2+Q13885+Q9BVA1+Q9BUF5); experiment: Disruption of microtubule network in human HeLa cells at 100 to 500 nM incubated for 3 hrs by laser confocal microscopy analysis; type: cell-based; conditions: dose 100-500 nM, DDE = dose-dependent effect
HeLa [4] = experiment: Induction of apoptosis in human HeLa cells assessed as late apoptotic cells at 750 nM incubated for 24 hrs by annexin V FITC and propidium iodide staining based flow cytometry analysis (reference value: 0.05%); type: functional
HeLa [5] = experiment: Induction of apoptosis in human HeLa cells assessed as late apoptotic cells at 500 nM incubated for 72 hrs by annexin V FITC and propidium iodide staining based flow cytometry analysis (reference value: 4.70%); type: functional
HeLa [6] = experiment: Induction of apoptosis in human HeLa cells assessed as early apoptotic cells at 750 nM incubated for 24 hrs by annexin V FITC and propidium iodide staining based flow cytometry analysis (reference value: 0.12%); type: functional
HeLa [7] = experiment: Induction of apoptosis in human HeLa cells assessed as late apoptotic cells at 1 uM incubated for 48 hrs by annexin V FITC and propidium iodide staining based flow cytometry analysis (reference value: 8.87%); type: functional
HeLa [8] = experiment: Inhibition of cell migration in human HeLa cells at 10 to 1000 nM measured up to 24 hrs wound healing assay; type: functional, cell-based; conditions: dose 10-1000 nM, DDE = dose-dependent effect
HeLa [9] = experiment: Induction of apoptosis in human HeLa cells assessed as necrotic cells at 100 nM incubated for 72 hrs by annexin V FITC and propidium iodide staining based flow cytometry analysis (reference value: 2.88 %); type: functional
HeLa [10] = experiment: Induction of apoptosis in human HeLa cells assessed as early apoptotic cells at 1 uM incubated for 24 hrs by annexin V FITC and propidium iodide staining based flow cytometry analysis (reference value: 0.12%); type: functional
HeLa [11] = experiment: Induction of apoptosis in human HeLa cells assessed as necrotic cells at 100 nM incubated for 48 hrs by annexin V FITC and propidium iodide staining based flow cytometry analysis (reference value: 1.85 %); type: functional
HeLa [12] = experiment: Induction of apoptosis in human HeLa cells assessed as late apoptotic cells at 750 nM incubated for 72 hrs by annexin V FITC and propidium iodide staining based flow cytometry analysis (reference value: 4.70%); type: functional
HeLa [13] = experiment: Induction of mitochondrial membrane potential alteration in human HeLa cells assessed as viable cells at 750 nM measured after 48 hrs by JC1 staining-based flow cytometry analysis (Rvb =90.9 %); type: functional; conditions: read-out: Activity
HeLa [14] = experiment: Induction of apoptosis in human HeLa cells assessed as viable cells at 500 nM incubated for 48 hrs by annexin V FITC and propidium iodide staining based flow cytometry analysis (reference value: 85.5%); type: functional; conditions: read-out: Activity
HeLa [15] = experiment: Induction of mitochondrial membrane potential alteration in human HeLa cells assessed as necrotic cells at 100 nM measured after 48 hrs by JC1 staining-based flow cytometry analysis (reference value: 0%); type: functional
HeLa [16] = experiment: Induction of apoptosis in human HeLa cells assessed as viable cells at 500 nM incubated for 72 hrs by annexin V FITC and propidium iodide staining based flow cytometry analysis (reference value: 90.1%); type: functional; conditions: read-out: Activity
HeLa [17] = experiment: Induction of apoptosis in human HeLa cells assessed as necrotic cells at 500 nM incubated for 72 hrs by annexin V FITC and propidium iodide staining based flow cytometry analysis (reference value: 2.88 %); type: functional
HeLa [18] = experiment: Induction of mitochondrial membrane potential alteration in human HeLa cells assessed as necrotic cells at 250 nM measured after 48 hrs by JC1 staining-based flow cytometry analysis (reference value: 0%); type: functional
[19] = Metabolic stability in rat liver microsomes assessed as intrinsic clearance incubated for 5 mins in presence of NADPH by HPLC analysis; type: ADME, Microsome; conditions: read-out: CLH
HCT-116 = experiment: Antiproliferative activity against human HCT-116 cells assessed as reduction in cell viability incubated for 48 hrs by MTS assay; type: functional, cell-based; conditions: HCT-116, 48 h
HeLa [20] = experiment: Induction of apoptosis in human HeLa cells assessed as necrotic cells at 750 nM incubated for 72 hrs by annexin V FITC and propidium iodide staining based flow cytometry analysis (reference value: 2.88 %); type: functional
HeLa [21] = experiment: Induction of mitochondrial membrane potential alteration in human HeLa cells assessed as early apoptotic cells at 500 nM measured after 48 hrs by JC1 staining-based flow cytometry analysis (reference value: 9.07 %); type: functional
Tubulin = Tubulin (Sus scrofa, UniProt P02554+P02550); experiment: Inhibition of pig brain tubulin polymerization incubated for 19 mins by spectrophotometric method
HeLa [22] = experiment: Induction of apoptosis in human HeLa cells assessed as necrotic cells at 100 nM incubated for 24 hrs by annexin V FITC and propidium iodide staining based flow cytometry analysis (reference value: 1.14 %); type: functional
HeLa [23] = experiment: Induction of apoptosis in human HeLa cells assessed as late apoptotic cells at 500 nM incubated for 24 hrs by annexin V FITC and propidium iodide staining based flow cytometry analysis (reference value: 0.05%); type: functional
HeLa [24] = experiment: Induction of apoptosis in human HeLa cells assessed as late apoptotic cells at 1 uM incubated for 72 hrs by annexin V FITC and propidium iodide staining based flow cytometry analysis (reference value: 4.70%); type: functional
HeLa [25] = experiment: Induction of apoptosis in human HeLa cells assessed as viable cells at 1 uM incubated for 24 hrs by annexin V FITC and propidium iodide staining based flow cytometry analysis (reference value: 85.7%); type: functional; conditions: read-out: Activity
HeLa [26] = experiment: Induction of apoptosis in human HeLa cells assessed as necrotic cells at 750 nM incubated for 48 hrs by annexin V FITC and propidium iodide staining based flow cytometry analysis (reference value: 1.85 %); type: functional
HeLa [27] = experiment: Induction of mitochondrial membrane potential alteration in human HeLa cells assessed as necrotic cells at 750 nM measured after 48 hrs by JC1 staining-based flow cytometry analysis (reference value: 0%); type: functional
HeLa [28] = experiment: Induction of apoptosis in human HeLa cells assessed as late apoptotic cells at 500 nM incubated for 48 hrs by annexin V FITC and propidium iodide staining based flow cytometry analysis (reference value: 8.87%); type: functional
HeLa [29] = experiment: Induction of mitochondrial membrane potential alteration in human HeLa cells assessed as late apoptotic cells at 500 nM measured after 48 hrs by JC1 staining-based flow cytometry analysis (reference value: 0.009%); type: functional

COc1cc(C(=O)c2nc(N3CCCC3)nc3ccsc23)cc(OC)c1OC showed an IC50 (A549) of 14 nM, a viability at 0.1 µM (HeLa [1]) of 80.5% and an Activity (HeLa [2]) of 5.18%. The half-life [3] was 17 min, the Activity (Tubulin (Homo sapiens)) was “Dde” and the Activity (HeLa [4]) was 7.06%. For the same compound, the Activity (HeLa [5]) was 14.5%, the Activity (HeLa [6]) was 8.59% and the Activity (HeLa [7]) was 41.2%. For the same compound, the inhibition (HeLa [8]) was “Dde”, the Activity (HeLa [9]) was 5.32% and the Activity (HeLa [10]) was 7.23%. For the same compound, the Activity (HeLa [11]) was 2.38%, the Activity (HeLa [12]) was 21.3% and the viability at 0.75 µM (HeLa [13]) was 56.7%. The viability at 0.5 µM (HeLa [14]) was 78.1%, the Activity (HeLa [15]) was 0.02% and the viability at 0.5 µM (HeLa [16]) was 32.6%. For the same compound, the Activity (HeLa [17]) was 52.2%, the Activity (HeLa [18]) was 0.01% and the microsomal CLint [19] was 40.8 µL/min/mg. The IC50 (HCT-116) was 21 nM, the Activity (HeLa [20]) was 40.8% and the Activity (HeLa [21]) was 33.1%. The IC50 (Tubulin) was 1600 nM, the Activity (HeLa [22]) was 1.52% and the Activity (HeLa [23]) was 6.42%. It also gave an Activity (HeLa [24]) of 24.7%, a viability at 1 µM (HeLa [25]) of 80.1% and an Activity (HeLa [26]) of 22.5%. For the same compound, the Activity (HeLa [27]) was 0.019%, the Activity (HeLa [28]) was 10.8% and the Activity (HeLa [29]) was 0.019%.
